Laboratory results taken from patent US20130040933A1, “AZAINDOLES AS JANUS KINASE INHIBITORS” (priority 2010, published 2013).

molecular target: T1, rhJAK3 (Homo sapiens, UniProt P52333); test: JAK Biochemical HTRF Assay (JAK3); conditions: recombinant purified GST-tagged catalytic domain, HTRF format, [ATP] 1.7 μM; read-out: rhJAK3 IC50
T1 construct: recombinant purified GST-tagged catalytic domain for each enzyme; purchased Invitrogen PV3855
Method: JAK Biochemical HTRF Assay Protocol
The ability of compounds to inhibit the activity of JAK1, JAK2, JAK3, and TYK2 was measured using a recombinant purified GST-tagged catalytic domain for each enzyme (Invitrogen JAK1 #PV4774, JAK2 #PV4210, JAK3 #PV3855, TYK2 #PV4790) in an HTRF format biochemical assay. The reactions employed a common peptide substrate, LCB-EQEDEPEGDYFEWLW-NH2. The basic assay protocol is as follows: First, […] of diluted compounds in DMSO were dispensed into the wells of a dry 384-well Black plate (Greiner #781076) using a Labcyte Echo 555 acoustic dispenser. Subsequent reagent additions employed a Thermo Multidrop Combi nL. Next, 10 μL of 2× enzyme and 2× substrate in 1× assay buffer (Invitrogen kinase buffer #PV3189, 2 mM DTT, 0.05% BSA) were added to the wells and preincubated for 30 min at room temperature to allow compound binding to equilibrate. After equilibration, 10 μl, of 2×ATP in 1× assay buffer was added to initiate the kinase reaction and the plates were incubated at room temperature for 120 min. At the end of the incubation, 20 μL of 2× stop buffer containing streptavidin-Dylight (Thermo #21845) and Eu-tagged pY20 antibody (Perkin Elmer #AD0067) was added to quench the reaction. Plates were further incubated 60 min at room temperature with shaking and then read on a Perkin Elmer Envision (λex=337 nm, λem=665 and 615 nm, TRF delay time=20 μs). HTRF signal=10,000*665 nm reading/615 nm reading. After normalization to untreated controls, the percent inhibition of the HTRF signal at each compound concentration was calculated. The plot of percent inhibition vs. the log of compound concentration was fit with a 4-parameter dose response equation to calculate IC50 values.

T1 sequence (P52333 822-1111 limits assumed): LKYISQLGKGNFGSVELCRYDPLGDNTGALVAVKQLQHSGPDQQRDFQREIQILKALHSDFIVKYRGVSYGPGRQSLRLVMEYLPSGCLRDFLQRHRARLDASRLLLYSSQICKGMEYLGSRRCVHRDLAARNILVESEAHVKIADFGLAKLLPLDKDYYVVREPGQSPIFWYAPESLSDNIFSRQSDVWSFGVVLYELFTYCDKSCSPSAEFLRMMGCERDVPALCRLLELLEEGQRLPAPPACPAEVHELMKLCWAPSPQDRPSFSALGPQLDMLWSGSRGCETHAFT

Row | Compound | IC50
1 | O=C(NCC(F)(F)F)[C@@H]1CCCN1c1cncc(-c2c[nH]c3ncc(Cl)cc23)n1 [Example 1-5, 1-[6-(5-chloro-1H-pyrrolo[2,3-b]pyridin-3-yl)-pyrazin-2-yl]-N-(2,2,2-trifluoroethyl)-L-prolinamide] | 1 to 10 nM
2 | O=C(NCC(F)(F)F)[C@H]1CCCN1c1cncc(-c2c[nH]c3ncc(Cl)cc23)n1 [Example 1-6, 1-[6-(5-chloro-1H-pyrrolo[2,3-b]pyridin-3-yl)pyrazin-2-yl]-N-(2,2,2-trifluoroethyl)-D-prolinamide] | ≤ 1 nM
3 | CCNC(=O)[C@H]1CCCN1c1cncc(-c2c[nH]c3ncc(Cl)cc23)n1 [Example 1-7, 1-[6-(5-chloro-1H-pyrrolo[2,3-b]pyridin-3-yl)pyrazin-2-yl]-N-ethyl-D-prolinamide] | 1 to 10 nM
4 | O=C(NCC(F)(F)F)[C@@H]1CC(F)(F)CN1c1cncc(-c2c[nH]c3ncc(Cl)cc23)n1 [Example 1-8, 1-[6-(5-chloro-1H-pyrrolo[2,3-b]pyridin-3-yl)pyrazin-2-yl]-4,4-difluoro-N-(2,2,2-trifluoroethyl)-L-prolinamide] | 1 to 10 nM
5 | CC1(C(=O)NCC(F)(F)F)CCN1c1cncc(-c2c[nH]c3ncc(Cl)cc23)n1 (stereo not drawn) [Example 1-9, 1-[6-(5-chloro-1H-pyrrolo[2,3-b]pyridin-3-yl)pyrazin-2-yl]-2-methyl-N-(2,2,2-trifluoroethyl)azetidine-2-carboxamide] | ≤ 1 nM
6 | C[C@@]1(C(=O)NCC(F)(F)F)CCN1c1cncc(-c2c[nH]c3ncc(Cl)cc23)n1 [Example 1-10, (2S)-1-[6-(5-chloro-1H-pyrrolo[2,3-b]pyridin-3-yl)pyrazin-2-yl]-2-methyl-N-(2,2,2-trifluoroethyl)azetidine-2-carboxamide] | 1 to 10 nM
7 | C[C@]1(C(=O)NCC(F)(F)F)CCN1c1cncc(-c2c[nH]c3ncc(Cl)cc23)n1 [Example 1-11, (2R)-1-[6-(5-chloro-1H-pyrrolo[2,3-b]pyridin-3-yl)pyrazin-2-yl]-2-methyl-N-(2,2,2-trifluoroethyl)azetidine-2-carboxamide] | ≤ 1 nM
8 | CC(C)(C)OC(=O)N1CCN(c2cncc(-c3c[nH]c4ncc(Cl)cc34)n2)[C@@H](C(=O)NCC(F)(F)F)C1 [Example 1-13, tert-butyl (3R)-4-[6-(5-chloro-1H-pyrrolo[2,3-b]pyridin-3-yl)pyrazin-2-yl]-3-[(2,2,2-trifluoroethyl)carbamoyl]-piperazine-1-carboxylate] | 1 to 10 nM
9 | O=C(NCC(F)(F)F)C1CN(c2cncc(-c3c[nH]c4ncc(Cl)cc34)n2)C1 [Example 1-15, 1-[6-(5-chloro-1H-pyrrolo[2,3-b]pyridin-3-yl)pyrazin-2-yl]-N-(2,2,2-trifluoroethyl)azetidine-3-carboxamide] | 10 to 100 nM
10 | COC(=O)c1ncc(N[C@@H](C)C(=O)NCC(F)(F)F)nc1-c1c[nH]c2ncc(Cl)cc12 [Example 1-16, methyl 3-(5-chloro-1H-pyrrolo[2,3-b]pyridin-3-yl)-5-({(1S)-1-methyl-2-oxo-2-[(2,2,2-trifluoroethyl)amino]ethyl}amino)-pyrazine-2-carboxylate] | 10 to 100 nM
11 | C[C@H](Nc1cncc(-c2c[nH]c3ncc(Cl)cc23)n1)C(=O)N1CCOCC1 [Example 2-2, 6-(5-chloro-1H-pyrrolo[2,3-b]-pyridin-3-yl)-N-[(1S)-1-methyl-2-morpholin-4-yl-2-oxoethyl]pyrazin-2-amine] | 100 to 1000 nM
12 | C[C@H](Nc1cncc(-c2c[nH]c3ncc(Cl)cc23)n1)C(=O)N1CCC(F)(F)C1 [Example 2-3, 6-(5-chloro-1H-pyrrolo[2,3-b]-pyridin-3-yl)-N-[(1S)-2-(3,3-difluoropyrrolidin-1-yl)-1-methyl-2-oxoethyl]pyrazin-2-amine] | 10 to 100 nM
13 | C[C@H](Nc1cncc(-c2c[nH]c3ncc(Cl)cc23)n1)C(=O)N1CC(F)(F)C(F)(F)C1 [Example 2-4, 6-(5-chloro-1H-pyrrolo[2,3-b]-pyridin-3-yl)-N-[(1S)-1-methyl-2-oxo-2-(3,3,4,4-tetrafluoro-pyrrolidin-1-yl)ethyl]pyrazin-2-amine] | 100 to 1000 nM
14 | C[C@@H](Nc1cncc(-c2c[nH]c3ncc(Cl)cc23)n1)C(=O)NCc1cccnc1Cl [Example 2-5, N-[(2-chloropyridin-3-yl)methyl]-N^2-[6-(5-chloro-1H-pyrrolo[2,3-b]-pyridin-3-yl)pyrazin-2-yl]-D-alaninamide] | 100 to 1000 nM
15 | Cc1cc(CNC(=O)[C@@H](C)Nc2cncc(-c3c[nH]c4ncc(Cl)cc34)n2)no1 [Example 2-6, N^2-[6-(5-chloro-1H-pyrrolo[2,3-b]-pyridin-3-yl)pyrazin-2-yl]-N-[(5 - methylisoxazol-3-yl)methyl]-D-alaninamide] | 100 to 1000 nM
16 | C[C@@H](Nc1cncc(-c2c[nH]c3ncc(Cl)cc23)n1)C(=O)NCCc1cn[nH]c1 [Example 2-7, N^2-[6-(5-chloro-1H-pyrrolo[2,3-b]-pyridin-3-yl)pyrazin-2-yl]-N-[2-(1H-pyrazol-4-yl)ethyl]-D-alaninamide] | 100 to 1000 nM
17 | CC(Cc1cccnc1)NC(=O)[C@@H](C)Nc1cncc(-c2c[nH]c3ncc(Cl)cc23)n1 (stereo partly drawn) [Example 2-9, N^2-[6-(5-chloro-1H-pyrrolo[2,3-b]-pyridin-3-yl)pyrazin-2-yl]-N-(l - methyl-2-pyridin-3-ylethyl)-D-alaninamide] | 100 to 1000 nM
18 | C[C@@H](Nc1cncc(-c2c[nH]c3ncc(Cl)cc23)n1)C(=O)NCc1cccs1 [Example 2-10, N^2-[6-(5-chloro-1H-pyrrolo[2,3-b]-pyridin-3-yl)pyrazin-2-yl]-N-(thiophen-2-ylmethyl)-D-alaninamide] | 100 to 1000 nM
19 | C[C@@H](Nc1cncc(-c2c[nH]c3ncc(Cl)cc23)n1)C(=O)NCC(=O)N(C)C [Example 2-11, N-[6-(5-chloro-1H-pyrrolo[2,3-b]-pyridin-3-yl)pyrazin-2-yl]-D-alanyl-N,N-dimethylglycinamide] | 100 to 1000 nM

Now from value to molecule:

Row | IC50 | Compound
20 | ≤ 1 nM | CC(C)[C@@H](Nc1cncc(-c2c[nH]c3ncc(C(N)=O)cc23)n1)C(=O)NCC(F)(F)F [16 Step 8]
21 | ≤ 1 nM | C[C@@H](Nc1cncc(-c2c[nH]c3ncc(Cl)cc23)n1)C(=O)NCC(F)(F)F [Example 1, N^2-[6-(5-Chloro-1H-pyrrolo[2,3-b]pyridin-3-yl)pyrazin-2-yl]-N-(2,2,2-trifluoroethyl)-D-alaninamide]
22 | 1 to 10 nM | O=C(NCC(F)(F)F)[C@@H]1CC[C@@H](Nc2cncc(-c3c[nH]c4ncc(Cl)cc34)n2)C1 [Example 1-1, (1R,3R)-3-{[6-(5-chloro-1H-pyrrolo[2,3-b]pyridin-3-yl)-pyrazin-2-yl]amino}-N-(2,2,2-trifluoroethyl)cyclopentane-carboxamide]
23 | 1 to 10 nM | O=C(NCC(F)(F)F)[C@H]1CC[C@@H](Nc2cncc(-c3c[nH]c4ncc(Cl)cc34)n2)C1 [Example 1-2, (1S,3R)-3-{[6-(5-chloro-1H-pyrrolo[2,3-b]pyridin-3-yl)-pyrazin-2-yl]amino}-N-(2,2,2-trifluoroethyl)cyclopentane-carboxamide]
24 | 1 to 10 nM | O=C(NCC(F)(F)F)[C@@H]1CC[C@H](Nc2cncc(-c3c[nH]c4ncc(Cl)cc34)n2)C1 [Example 1-3, (1R,3S)-3-{(6-(5-chloro-1H-pyrrolo[2,3-b]pyridin-3-yl)-pyrazin-2-yl]amino}-N-(2,2,2-trifluoroethyl)cyclopentane-carboxamide]
25 | 10 to 100 nM | O=C(NCC(F)(F)F)[C@H]1CC[C@H](Nc2cncc(-c3c[nH]c4ncc(Cl)cc34)n2)C1 [Example 1-4, (1S,3S)-3-{[6-(5-chloro-1H-pyrrolo[2,3-b]pyridin-3-yl)-pyrazin-2-yl]amino}-N-(2,2,2-trifluoroethyl)cyclopentane-carboxamide]
26 | ≤ 1 nM | CC(C)[C@@H](Nc1cncc(-c2c[nH]c3ncc(Cl)cc23)n1)C(=O)NCC(F)(F)F [Example 1-12, N^2-[6-(5-chloro-1H-pyrrolo[2,3-b]pyridin-3-yl)pyrazin-2-yl]-N-(2,2,2-trifluoroethyl)-D-valinamide]
27 | ≤ 1 nM | CC(C)(Nc1cncc(-c2c[nH]c3ncc(Cl)cc23)n1)C(=O)NCC(F)(F)F [Example 1-14, N^2-[6-(5-chloro-1H-pyrrolo[2,3-b]pyridin-3-yl)pyrazin-2-yl]-2-methyl-N-(2,2,2-trifluoroethyl)alaninamide]
28 | ≤ 1 nM | C[C@H](Nc1cncc(-c2c[nH]c3ncc(Cl)cc23)n1)C(=O)NCC(F)(F)F [Example 2, N^2-[6-(5-Chloro-1H-pyrrolo[2,3-b]pyridin-3-yl)pyrazin-2-yl]-N-(2,2,2-trifluoroethyl)-L-alaninamide]
29 | 10 to 100 nM | C[C@H](Nc1cncc(-c2c[nH]c3ncc(Cl)cc23)n1)C(=O)NCC#N [Example 2-1, N^2-[6-(5-chloro-1H-pyrrolo[2,3-b]-pyridin-3-yl)pyrazin-2-yl]-N-(cyanomethyl)-L-alaninamide]
30 | 10 to 100 nM | C[C@@H](Nc1cncc(-c2c[nH]c3ncc(Cl)cc23)n1)C(=O)NCCC1CC1 [Example 2-8, N^2-[6-(5-chloro-1H-pyrrolo[2,3-b]-pyridin-3-yl)pyrazin-2-yl]-N-(2-cyclopropylethyl)-D-alaninamide]
